We go through 39 compounds from patent US9029376B2, “Small molecule inhibitors for the treatment or prevention of dengue virus infection” (Siga Technologies, Inc., priority 2008, dated 2015).

A value given as a limit tells only on which side of the number the result lay.

For the first assay, the system named is Dengue-2 (Strain New Guinea C). Nature of the assay: Dengue-2 viral yield assay in Vero cells. It counts as cell-based. The note with it: Dengue virus, Vero, 48 h, read-out: Activity (anti-dengue 2 viral activity, EC50). How it is done: Compounds that were active in the primary screen were tested for activity in viral yield assays. […] Vero cells in 12-well plates were infected with dengue-2 virus at a multiplicity of infection (MOI) of 0.1, treated with compound (or DMSO as a control), incubated at 37° C., harvested 48 hours post infection and titered on Vero cells as described above. The EC50 was calculated through ExcelFit. Those compounds with activity below 1 μM are indicated with “A”, those with activity between 1 and 10 μM are indicated with “B”, and those with activity between 10 and 25 μM with “C”.
Broadly, the EC50 is the concentration that produces a half-maximal response. As for `Cc1cccc(C(=O)Nc2ccc3nc(SCC(=O)N4CCOCC4)sc3c2)c1` [Compound 13, 3-Methyl-N-[2-(2-morpholin-4-yl-2-oxo-ethylsulfanyl)-benzothiazol-6-yl]-benzamide], the EC50 lay within 10 to 25 µM. On the same count and under the same terms, next, `O=C(Nc1ccc2nc(SCC(=O)N3CCOCC3)sc2c1)c1ccc(Cl)cc1Cl` [Compound 6, 2,4-Dichloro-N-[2-(2-morpholin-4-yl-2-oxo-ethylsulfanyl)-benzothiazol-6-yl]-benzamide]: 1 to 10 µM. In the case of `O=C(CSc1nc2ccccc2[nH]1)N1CCN(c2ccccc2)CC1` [Compound 46, 2-(1H-Benzoimidazol-2-ylsulfanyl)-1-(4-phenyl-piperazin-1-yl)-ethanone], the EC50 is over 25 µM. Consider `CCC(=O)Nc1ccc2nc(SCC(=O)N3CCN(c4ccccc4)CC3)sc2c1` [Compound 54, N-{2-[2-oxo-2-(4-phenyl-piperazin-1-yl)-ethylsulfanyl]-benzothiazol-6-yl}-propionamide], for which the EC50 is over 25 µM. For the compound `CCOc1ccc2nc(SCC(=O)N3CCc4ccccc4C3)sc2c1` [Compound 7, 1-(3,4-Dihydro-1H-isoquinolin-2-yl)-2-(6-ethoxy-benzothiazol-2-ylsulfanyl)-ethanone], the half-maximal effective concentration (EC50) lay in the range of 1 to 10 µM.

Turning to `O=C(CSc1nc2ccccc2o1)N1CCN(c2ccccc2)CC1` [Compound 76, 2-(Benzooxazol-2-ylsulfanyl)-1-(4-phenyl-piperazin-1-yl)-ethanone], the EC50 was over 25 µM. The same measure, in the same setting: then `Nc1ccc2nc(SCC(=O)N3CCCC3)sc2c1` [Compound 59, 2-(6-Amino-benzothiazol-2-ylsulfanyl)-1-pyrrolidin-1-yl-ethanone], with over 25 µM.

Staying with this assay, now noted: Dengue virus; Dengue-2 strain New Guinea C, Vero cells, MOI 0.1, harvested 48 hours post infection, viral yield; read-out: Activity (anti-dengue 2 viral activity, EC50).
As to `NC(=O)C1CCN(C(=O)CSc2nc3ccccc3o2)CC1` [Compound 67, 1-[2-(Benzooxazol-2-ylsulfanyl)-acetyl]-piperidine-4-carboxylic acid amide], the 50% effective concentration (EC50) is over 25 µM. Still for that read-out and setting: next, `O=C(CSc1nc2ccccc2s1)N1CCCC1` [Compound 63, 2-(Benzothiazol-2-ylsulfanyl)-1-pyrrolidin-1-yl-ethanone]: over 25 µM; `O=C(CSc1nc2ccccc2s1)N1CCN(c2nc3ccccc3s2)CC1` [Compound 50, 1-(4-Benzothiazol-2-yl-piperazin-1-yl)-2-(benzothiazol-2-ylsulfanyl)-ethanone]: over 25 µM.

For `O=C(Nc1ccc2nc(SCC(=O)N3CCOCC3)sc2c1)C1CCCCC1` [Compound 32, Cyclohexanecarboxylic acid [2-(2-morpholin-4-yl-2-oxo-ethylsulfanyl)-benzothiazol-6-yl]-amide], the EC50 was over 25 µM.

With `CCOc1ccc2nc(SCC(=O)N3CCN(c4ccccc4)CC3)sc2c1` [Compound 14, 2-(6-Ethoxy-benzothiazol-2-ylsulfanyl)-1-(4-phenyl-piperazin-1-yl)-ethanone], the EC50 lay in the range of 10 to 25 µM. On the same count and under the same terms, next, `O=C(Nc1ccc2nc(SCC(=O)N3CCCC3)sc2c1)c1ccccc1Br` [Compound 65, 2-Bromo-N-[2-(2-oxo-2-pyrrolidin-1-yl-ethylsulfanyl)-benzothiazol-6-yl]-benzamide]: over 25 µM; `O=C(CSc1nc2ccccc2[nH]1)N1CCOCC1` [Compound 42, 2-(1H-Benzoimidazol-2-ylsulfanyl)-1-morpholin-4-yl-ethanone]: over 25 µM; `COc1ccc(C(=O)Nc2ccc3nc(SCC(=O)N4CCOCC4)sc3c2)cc1OC` [Compound 64, 3,4-Dimethoxy-N-[2-(2-morpholin-4-yl-2-oxo-ethylsulfanyl)-benzothiazol-6-yl]-benzamide]: over 25 µM. As for `CCC(=O)Nc1ccc2nc(SCC(=O)N3CCCCC3)sc2c1` [Compound 2, N-[2-(2-oxo-2-piperidin-1-yl-ethylsulfanyl)-benzothiazol-6-yl]-propionamide], the EC50 is under 1 µM. On the same count and under the same terms, then `O=C(Cc1cccc2ccccc12)Nc1ccc2nc(SCC(=O)N3CCOCC3)sc2c1` [Compound 38, N-[2-(2-Morpholin-4-yl-2-oxo-ethylsulfanyl)-benzothiazol-6-yl]-2-naphthalen-1-yl-acetamide], with over 25 µM; and `O=C(CSc1nc2ccccc2s1)N1CCN(C(c2ccccc2)c2ccccc2)CC1` [Compound 72, 1-(4-Benzhydryl-piperazin-1-yl)-2-(benzothiazol-2-ylsulfanyl)-ethanone], with over 25 µM. For the compound `Cn1c(SCC(=O)N2CCc3ccccc3C2)nc2ccccc21` [Compound 81, 1-(3,4-Dihydro-1H-isoquinolin-2-yl)-2-(1-methyl-1H-benzoimidazol-2-ylsulfanyl)-ethanone], the EC50 was over 25 µM. Regarding `O=C(CSc1nc2ccc(/N=C/c3ccc(Cl)cc3)cc2s1)N1CCOCC1` [Compound 18, 2-(6-{[1-(4-Chloro-phenyl)-meth-(E)-ylidene]-amino}-benzothiazol-2-ylsulfanyl)-1-morpholin-4-yl-ethanone], the EC50 was over 25 µM. Same read-out and setting: then `Cc1ccccc1C(=O)Nc1ccc2nc(SCC(=O)N3CCOCC3)sc2c1` [Compound 5, 2-Methyl-N-[2-(2-morpholin-4-yl-2-oxo-ethylsulfanyl)-benzothiazol-6-yl]-benzamide], with 1 to 10 µM; and `Nc1ccc2nc(SCC(=O)N3CCN(c4ccc(Cl)cc4)CC3)sc2c1` [Compound 77, 2-(6-Amino-benzothiazol-2-ylsulfanyl)-1-[4-(4-chloro-phenyl)-piperazin-1-yl]-ethanone], with over 25 µM.

As for `O=C(CSc1nc2ccccc2s1)Nc1ccc2nc(SCC(=O)N3CCOCC3)sc2c1` [Compound 34, 2-(Benzothiazol-2-ylsulfanyl)-N-[2-(2-morpholin-4-yl-2-oxo-ethylsulfanyl)-benzothiazol-6-yl]-acetamide], the half-maximal effective concentration (EC50) was over 25 µM. For the compound `O=C(CSc1nc2ccccc2[nH]1)N1CCCC1` [Compound 45, 2-(1H-Benzoimidazol-2-ylsulfanyl)-1-pyrrolidin-1-yl-ethanone], the EC50 is over 25 µM. On to `Cn1ccnc1SCC(=O)Nc1ccc2nc(SCC(=O)N3CCOCC3)sc2c1` [Compound 33, 2-(1-Methyl-1H-imidazol-2-ylsulfanyl)-N-[2-(2-morpholin-4-yl-2-oxo-ethylsulfanyl)-benzothiazol-6-yl]-acetamide], for which the EC50 was over 25 µM. Same read-out and setting: next, `O=C(Nc1ccc2nc(SCC(=O)N3CCOCC3)sc2c1)c1ccccc1F` [Compound 27, 2-Fluoro-N-[2-(2-morpholin-4-yl-2-oxo-ethylsulfanyl)-benzothiazol-6-yl]-benzamide]: over 25 µM. Still for that read-out and setting: next, `O=C(CSc1nc2ccc(/N=C/c3c(Cl)cccc3Cl)cc2s1)N1CCOCC1` [Compound 24, 2-(6-{[1-(2,6-Dichloro-phenyl)-meth-(E)-ylidene]-amino}-benzothiazol-2-ylsulfanyl)-1-morpholin-4-yl-ethanone]: over 25 µM; `O=C(CSc1nc2ccc([N+](=O)[O-])cc2s1)N1CCCC1` [Compound 55, 2-(6-Nitro-benzothiazol-2-ylsulfanyl)-1-pyrrolidin-1-yl-ethanone]: over 25 µM.

On to `O=C(CSc1nc2ccc([N+](=O)[O-])cc2s1)N1CCN(c2ccccc2)CC1` [Compound 52, 2-(6-Nitro-benzothiazol-2-ylsulfanyl)-1-(4-phenyl-piperazin-1-yl)-ethanone], for which the EC50 was over 25 µM.

Turning to `O=C(CSc1nc2ccccc2o1)N1CCN(Cc2ccccc2)CC1` [Compound 11, 2-(Benzooxazol-2-ylsulfanyl)-1-(4-benzyl-piperazin-1-yl)-ethanone], the concentration for a half-maximal effect (EC50) fell in the range of 1 to 10 µM. Take `CC(=O)Nc1ccc2nc(SCC(=O)N3CCN(c4ccccc4)CC3)sc2c1` [Compound 57, N-{2-[2-Oxo-2-(4-phenyl-piperazin-1-yl)-ethylsulfanyl]-benzothiazol-6-yl}-acetamide]: the concentration giving a half-maximal response (EC50) was over 25 µM. On the same count and under the same terms, then `O=C(Nc1ccc2nc(SCC(=O)N3CCOCC3)sc2c1)c1ccc(Cl)c(Cl)c1` [Compound 29, 3,4-Dichloro-N-[2-(2-morpholin-4-yl-2-oxo-ethylsulfanyl)-benzothiazol-6-yl]-benzamide], with over 25 µM; and `O=C(CSc1nc2ccccc2[nH]1)N1CCCCCC1` [Compound 43, 1-Azepan-1-yl-2-(1H-benzoimidazol-2-ylsulfanyl)-ethanone], with over 25 µM; and `Nc1ccc2nc(SCC(=O)N3CCN(c4nc5ccccc5s4)CC3)sc2c1` [Compound 40, 2-(6-Amino-benzothiazol-2-ylsulfanyl)-1-(4-benzothiazol-2-yl-piperazin-1-yl)-ethanone], with over 25 µM. Same read-out and setting: then `O=C(CSc1nc2ccc(/N=C/c3ccc(F)cc3)cc2s1)N1CCOCC1` [Compound 26, 2-(6-{[1-(4-Fluoro-phenyl)-meth-(E)-ylidene]-amino}-benzothiazol-2-ylsulfanyl)-1-morpholin-4-yl-ethanone], with over 25 µM. As for `Nc1ccc2nc(SCC(=O)Nc3ccc4nc(SCC(=O)N5CCOCC5)sc4c3)sc2c1` [Compound 31, 2-(6-Amino-benzothiazol-2-ylsulfanyl)-N-[2-(2-morpholin-4-yl-2-oxo-ethylsulfanyl)-benzothiazol-6-yl]-acetamide], the EC50 is over 25 µM. With `CCN(CC)C(=O)CSc1nc2ccccc2n1C(=O)NC1CCCCC1` [Compound 15, 2-Diethylcarbamoylmethylsulfanyl-benzoimidazole-1-carboxylic acid cyclohexylamide], the EC50 was over 25 µM.

For the compound `Cn1c(Cc2cccc3ccccc23)nnc1SCC(=O)Nc1ccc2nc(SCC(=O)N3CCOCC3)sc2c1` [Compound 36, 2-(4-Methyl-5-naphthalen-1-ylmethyl-4H-[1,2,4]triazol-3-ylsulfanyl)-N-[2-(2-morpholin-4-yl-2-oxo-ethylsulfanyl)-benzothiazol-6-yl]-acetamide], the EC50 was over 25 µM. `O=C(CSc1nc2ccccc2s1)N1CCN(c2ccc(F)cc2)CC1` [Compound 71, 2-(Benzothiazol-2-ylsulfanyl)-1-[4-(4-fluoro-phenyl)-piperazin-1-yl]-ethanone]: the EC50 is over 25 µM.
